Experiments:
B16F10 cells [1] = assay: Glucosylceramide depletion study on Psd1 entrance in B16F10 cells; assay type: cell-based, murine; conditions: 20 µM PPMP, 1 h, without Psd1
Method: Figure 4 GlcCer reduction inhibits the entrance of FITC-Psd1 into B16F10 cancer cells. B16F10 cells (1.5 × 10^4) were incubated with or without 20 µM PPMP for 1 h followed by treatment with or without 9 µM FITC-Psd1 for 2 h. Fixed cells were stained with Vybrant™ Alexa Fluor™ 594 and DAPI. (a) B16F10 cells without treatments (−PPMP, −Psd1); (b) B16F10 cells treated with Psd1 for 2 h (–PPMP, +Psd1 (2 h)); (c) B16F10 cells treated with PPMP (+PPMP, −Psd1); (d) B16F10 cells treated with PPMP plus Psd1 (+PPMP, +Psd1 (2 h)). Pictures were acquired at 40× magnification. Inset zoom images are at 100× magnification. At least two experiments were performed independently.
B16F10 cells (1.5 × 10^4) in cover glass were previously incubated with 20 µM DL-threo-1-phenyl-2-palmitoylamino-3-morpholino-1-propanol (PPMP, Sigma-Aldrich Brasil, São Paulo, Brazil) inhibitor for 60 min followed by treatment with 9 µM Psd1 for 30 min or 2 h. The cells were fixed on glass slides with 4% paraformaldehyde plus 4% sucrose for 10 min and then stained with a Vybrant Alexa Fluor 594 Lipid Raft Labeling Kit (Thermo Fisher Scientific Inc, Maryland, USA). Briefly, 1.25 µg/mL cholera toxin subunit B (CT-B) and 160× diluted anti-CT-B were incubated with cells for 10 min each at 4 °C. Three PBS wash steps were performed between each stage. […]

B16F10 cells [2] = assay: SYTOXGreen uptake (membrane permeabilization), B16F10 cells; assay type: cell-based, murine; conditions: 0.0001% H2O2, 30 min
Method: Figure 2 Psd1 promotes B16F10 live cell membrane permeabilization as monitored by SYTOX Green fluorescence. (A) Psd1 untreated and hydrogen peroxide-treated B16F10 cells. (B) A total of 1.5 × 10^4 B16F10 cells were incubated with 3 or 50 µM Psd1 for 30 min. (C) 1.5 × 10^4 B16F10 cells were incubated with 50 µM Psd1 for 1 h. All experiments were performed at 37 °C. Nucleus staining is shown in green (SYTOXGreen), and mitochondria are shown in red (MitoTracker Red CMXRos). Images are shown at 20× magnification. […] (E) Psd1 induces apoptosis in B16F10 cells. B16F10 cells were treated with 50 µM Psd1 for 24 h and labeled with propidium iodide, and the DNA content was analyzed by flow cytometry for the sub-G0/G1 profile. At least two independent experiments were performed. TEXT PRINTED IN THE PICTURE: (E) Control: Sub-G1: 4.4% | (E) Psd1: Sub-G1: 60.6% (50μM)
Images were obtained in the X, Y, and Z planes of the image, giving the image a 3-dimensional depth (Z-stack) at 100× magnification with a Zeiss Cell Observer Yokogawa Spinning Disk confocal microscope (Cell Observed SD, Carl-Zeiss, Oberkochen, Germany) located in the Microscopia Óptica de Luz Gustavo de Oliveira Castro (Plamol) platform in Universidade Federal do Rio de Janeiro. To measure the mean fluorescence intensity (MFI), Zen Lite Blue (Carl-Zeiss, Oberkochen, Germany) software was used. On average, thirty cells per field were analyzed in fourteen fields by experiments. Then, the region of interest (ROI), specifically the nucleus and mitochondria, was tagged on the cells photographed for fluorescence analysis, which is given by the software from the intensity of the pixels. Subsequently, the statistical test was performed using GraphPad Prism version 7.4, and the values presented are averages with the corresponding standard deviations (SDs).
B16F10 cells were trypsinized and counted, and 1.5 × 10^4 cells/well in DMEM containing 0.1% (w/v) bovine serum albumin BSA were plated in a cell-view glass bottom culture dish with four compartments (Thermo Fisher Scientific Inc, Maryland, USA) and then incubated at 37 °C overnight to adhere. Post-treatment, the cells were treated with 3 or 50 µM Psd1 for 30 or 60 min and maintained at the same temperature. Cells treated with only water or 0.0001% H2O2 for 30 min were used as the negative and positive controls, respectively. Washes with saline were carried out between the additions of each probe followed by incubation at room temperature. The cells were incubated with 1 µL of SG, 1.5 µL of MitoTracker Red CMXRos, and 2 µL of DAPI for 10, 20, and 10 min, respectively. The fluorescent images were acquired by confocal microscopy.

recombinant cyclin F-GST = biological target: T1, recombinant cyclin F-GST; assay: SPR; Biacore X, CM5 chip, 25 °C; cyclin F-GST immobilised by amine coupling (10 mM sodium acetate pH 4.0); Psd1 10-240 µM injected at 15 µL/min for 4 min in 10 mM HEPES, 150 mM NaCl, pH 7.4; Psd1-GST curves subtracted; global fit, 1:1 Langmuir model; conditions: both partners purified
T1 chain: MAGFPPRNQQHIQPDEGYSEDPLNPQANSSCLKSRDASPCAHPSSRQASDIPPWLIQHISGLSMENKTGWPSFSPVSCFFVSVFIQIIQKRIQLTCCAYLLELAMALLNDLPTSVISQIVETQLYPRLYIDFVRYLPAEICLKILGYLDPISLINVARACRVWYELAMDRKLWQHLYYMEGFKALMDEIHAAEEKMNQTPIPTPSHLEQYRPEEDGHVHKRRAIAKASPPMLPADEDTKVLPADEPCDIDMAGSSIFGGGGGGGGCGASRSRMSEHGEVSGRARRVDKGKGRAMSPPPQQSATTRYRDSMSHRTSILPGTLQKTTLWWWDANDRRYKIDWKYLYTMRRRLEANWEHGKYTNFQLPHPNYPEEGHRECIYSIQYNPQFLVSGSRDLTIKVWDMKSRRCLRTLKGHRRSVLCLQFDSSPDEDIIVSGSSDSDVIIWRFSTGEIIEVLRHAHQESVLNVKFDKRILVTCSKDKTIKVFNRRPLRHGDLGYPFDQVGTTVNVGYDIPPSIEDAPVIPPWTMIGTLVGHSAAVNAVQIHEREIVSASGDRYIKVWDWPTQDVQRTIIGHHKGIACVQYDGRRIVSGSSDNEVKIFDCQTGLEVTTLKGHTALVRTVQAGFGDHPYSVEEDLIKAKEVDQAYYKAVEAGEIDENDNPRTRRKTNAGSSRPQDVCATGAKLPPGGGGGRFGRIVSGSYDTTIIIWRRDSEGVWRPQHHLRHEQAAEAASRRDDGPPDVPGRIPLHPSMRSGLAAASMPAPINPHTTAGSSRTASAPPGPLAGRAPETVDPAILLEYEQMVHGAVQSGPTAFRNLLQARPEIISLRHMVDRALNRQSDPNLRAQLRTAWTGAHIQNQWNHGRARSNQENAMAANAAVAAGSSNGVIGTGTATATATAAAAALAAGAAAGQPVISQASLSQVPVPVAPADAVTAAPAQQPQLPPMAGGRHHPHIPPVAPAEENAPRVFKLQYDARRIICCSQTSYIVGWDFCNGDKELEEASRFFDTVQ

CCCCCCCCCCCCCCCC(=O)N[C@H](CN1CCOCC1)[C@H](O)c1ccccc1 (racemic) [PPMP, DL-threo-1-phenyl-2-palmitoylamino-3-morpholino-1-propanol]
CT-B / Alexa Fluor 594 red signal (lipid raft; GlcCer) (B16F10 cells [1]): significant reduction in the bright red signal

OO [hydrogen peroxide, reference compound]
SYTOXGreen fluorescence, positive control (B16F10 cells [2]): green fluorescence signal increased significantly

B1: Pisum sativum defensin 1 (peptide, UniProt P81929 1-46, looked up)
chain: KTCEHLADTYRGVCFTNASCDDHCKNKAHLISGTCHNWKCFCTQNC
notes: Pisum sativum defensin 1 (Psd1), 46-amino acid residue plant defensin from pea seeds; also called Psd1; pea defensin Psd1; source: expressed and purified as previously described [11], first step HiPrep 26/60 Sephacryl S-100 HR; the abstract says Psd1 can be expressed in Pichia pastoris
Kd (recombinant cyclin F-GST): 1500 µM
